According to US9340577B2, “HLA binding motifs and peptides and their uses” (priority 1992, dated 2016):
No end group written: not given here.

Experiments:
Assay in all cases: biochemical
DRB1*0301 = DRB1*0301 (Homo sapiens, UniProt P01903+P01911, A100K/A102G/A103R/A169T/F55Y/I96L/K41T/L162R/M171V/P40S/Q125H/Q178H/Q39Y/R42S/S66N/T106N/T262R/W38E/Y61H); type: binding
DR1 (DRB1*0101) = DR1 (DRB1*0101) (Homo sapiens, UniProt P01903+P01911, A100R/D57E/F55L/F60I/F76Y/I96L/L162R/M171V/P40L/Q125E/R42F/V115G/Y59C); type: binding
DR4w4 (DRB1*0401) = DR4w4 (DRB1*0401) (Homo sapiens, UniProt P01903+P01911, A100K/A169T/F76Y/I96L/K127E/L162R/M171V/N62H/P40V/Q125Y/R42H/S133A/S149N/S66Y/V115G/V209L/W38E); type: binding
DRB1*0405 = DRB1*0405 (Homo sapiens, UniProt P01903+P01911, A100R/A169T/D86S/F76Y/I96L/K127E/L162R/M171V/N62H/P40V/Q125Y/R42H/S133A/S149N/S66Y/V115G/V209L/W38E); type: binding
DRB1*0802 = DRB1*0802 (Homo sapiens, UniProt P01903+P01911, A100R/A103L/A169T/F76Y/H45Y/I96F/K41T/L162R/M171V/P40S/Q125H/Q178H/Q39Y/Q99D/R218S/R42G/S66Y/V115G/W38E); type: binding
DRB1*1501 = DRB1*1501 (Homo sapiens, UniProt P01903+P01911); type: binding
DRB4*0101 = DRB4*0101 (Homo sapiens, UniProt P01903+P13762, G164S); type: binding
DRB1*1101 = DRB1*1101 (Homo sapiens, UniProt P01903+P01911, A100R/A169T/A87E/I96F/K41T/L162R/M171V/P40S/Q125H/Q178H/Q39Y/Q99D/R42S/S66Y/T262R/V115G/W38E); conditions: Binding affinity DRB1 *1101
DRB5*0101 = DRB5*0101 (Homo sapiens, UniProt P01903+Q30154); conditions: Binding affinity DRB5 *0101
DRB1*1302 = DRB1*1302 (Homo sapiens, UniProt P01903+P01911, A100E/A169T/K41T/L162R/M171V/P40S/Q125H/Q178H/Q39Y/Q99D/R42S/S66N/T262R/V115G/W38E/Y61H); type: binding
DR7 (DRB1*0701) = DR7 (DRB1*0701) (Homo sapiens, UniProt P01903+P01911, A100R/A102G/A103Q/D57E/D86V/E43K/F76Y/K127E/L162R/M171V/P40G/Q125H/Q99D/R33Q/R42Y/R54Q/S133A/S66F/T210M/V115G/Y107V/Y59L/Y89S); type: binding
DRB1*0901 = DRB1*0901 (Homo sapiens, UniProt P01903+P01911, A100R/A103E/D57H/D86V/F55Y/F60I/F76Y/I96F/K127E/L162R/M171V/P40D/Q125H/Q99R/R33Q/R42F/S133A/S66N/T210M/V115G/W38K/Y107V/Y59G/Y89S); type: binding
DRB1*1201 = DRB1*1201 (Homo sapiens, UniProt P01903+P01911, A100R/A169T/D57E/D86V/F55L/H45Y/K41T/L162R/M171V/P40S/Q125H/Q178H/Q39Y/Q99D/R42G/S66L/T262R/V114A/V67L/W38E/Y59H/Y61H/Y89S); type: binding

DRB1*1302, sequence (P01903 26-254 limits assumed, other chains not shown): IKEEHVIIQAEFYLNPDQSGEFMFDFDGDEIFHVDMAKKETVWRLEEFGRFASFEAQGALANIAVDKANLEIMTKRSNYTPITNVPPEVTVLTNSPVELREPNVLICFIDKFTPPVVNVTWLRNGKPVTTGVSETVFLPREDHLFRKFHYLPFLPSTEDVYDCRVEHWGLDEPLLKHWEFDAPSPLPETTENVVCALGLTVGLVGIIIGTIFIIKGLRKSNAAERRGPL
DRB1*1101, sequence (P01903 26-254 limits assumed, other chains not shown): as above
DRB1*0301, sequence (P01903 26-254 limits assumed, other chains not shown): as above

## CC[C@H](C)[C@H](NC(=O)[C@@H](NC(=O)[C@@H]1CCCN1C(=O)[C@H](Cc1ccccc1)NC(=O)[C@H](Cc1ccccc1)NC(=O)[C@H](Cc1ccc(O)cc1)NC(=O)[C@H](CCC(N)=O)NC(=O)[C@H](Cc1c[nH]c2ccccc12)NC(=O)[C@H](CC(N)=O)NC(=O)CNC(=O)[C@@H](N)C(C)C)C(C)C)C(=O)N[C@@H](Cc1ccccc1)C(=O)N[C@@H](CO)C(=O)N[C@@H](CCCCN)C(=O)N[C@@H](C)C(=O)O [Peptide 58.0114]
DRB1*0301
  IC50: 0.0041 µM

## CC(C)C[C@H](NC(=O)[C@H](CCC(=O)O)NC(=O)[C@H](CCCCN)NC(=O)[C@H](C)N)C(=O)N[C@@H](CCCCN)C(=O)N[C@@H](Cc1ccccc1)C(=O)N[C@H](C(=O)N[C@H](C(=O)N[C@@H](CC(C)C)C(=O)N[C@H](C(=O)N[C@@H](Cc1ccccc1)C(=O)N[C@@H](CCCNC(=N)N)C(=O)N[C@@H](Cc1c[nH]cn1)C(=O)NCC(=O)N[C@@H](CC(=O)O)C(=O)O)C(C)C)[C@@H](C)O)C(C)C [Peptide 68.0025]
DRB1*0301
  IC50: > 20 µM

## AFQVIELQMALETLS [Peptide 89.0181]
DR1 (DRB1*0101)
  IC50: 3.11 µM
DR4w4 (DRB1*0401)
  IC50: 0.062 µM
DRB1*0301
  IC50: 0.033 µM
DRB1*0405
  IC50: 0.252 µM
DRB1*0802
  IC50: 8.16 µM
DRB1*1501
  IC50: > 20 µM
DRB4*0101
  IC50: 0.349 µM
DRB1*1101
  IC50: 2.14 µM
DRB5*0101
  IC50: 1.69 µM

## AYGISFMELVRPFKS [Peptide 89.0060]
DR1 (DRB1*0101)
  IC50: 0.64 µM
DR4w4 (DRB1*0401)
  IC50: 1.72 µM
DRB1*0301
  IC50: 7.09 µM
DRB1*0405
  IC50: 4.26 µM
DRB1*0802
  IC50: 0.158 µM
DRB1*1302
  IC50: 4.49 µM
DRB4*0101
  IC50: 0.031 µM
DRB1*1101
  IC50: 0.051 µM
DRB5*0101
  IC50: 3.03 µM

## CTLVAGEVDYVGLYY [Peptide 90.0252]
DR1 (DRB1*0101)
  IC50: > 20 µM
DR4w4 (DRB1*0401)
  IC50: 0.776 µM
DR7 (DRB1*0701)
  IC50: > 20 µM
DRB1*0405
  IC50: 9.02 µM
DRB1*0802
  IC50: > 20 µM
DRB1*0901
  IC50: 0.981 µM
DRB1*1201
  IC50: 3.63 µM
DRB1*1302
  IC50: 0.714 µM
DRB1*1501
  IC50: > 20 µM
DRB4*0101
  IC50: 0.02 µM
DRB1*1101
  IC50: 6.72 µM
DRB5*0101
  IC50: > 20 µM

## DLRVVQQLLMGALTV [Peptide 85.0092]
DRB1*0301
  IC50: > 20 µM
DRB1*1501
  IC50: 0.057 µM
DRB1*1101
  IC50: 0.754 µM

## EVQIALESLSTTIYN [Peptide 90.0231]
DR4w4 (DRB1*0401)
  IC50: 1.28 µM
DR7 (DRB1*0701)
  IC50: 0.032 µM
DRB1*0301
  IC50: 0.708 µM
DRB1*0405
  IC50: 4.27 µM
DRB1*0802
  IC50: > 20 µM
DRB1*0901
  IC50: 0.406 µM
DRB1*1302
  IC50: 0.0043 µM
DRB4*0101
  IC50: 0.039 µM
DRB1*1101
  IC50: > 20 µM
DRB5*0101
  IC50: > 20 µM

## FIHFLQGAIISFVNS [Peptide 89.0088]
DR1 (DRB1*0101)
  IC50: 0.051 µM
DR4w4 (DRB1*0401)
  IC50: 2.91 µM
DRB1*0301
  IC50: 4.39 µM
DRB1*0802
  IC50: > 20 µM
DRB1*0901
  IC50: 0.867 µM
DRB1*1302
  IC50: 1.59 µM
DRB4*0101
  IC50: 1.68 µM
DRB1*1101
  IC50: 5.6 µM
DRB5*0101
  IC50: > 20 µM

## GGDWKQIVMFLRYQG [Peptide 89.0013]
DR1 (DRB1*0101)
  IC50: 2.04 µM
DR4w4 (DRB1*0401)
  IC50: 0.793 µM
DR7 (DRB1*0701)
  IC50: 2.46 µM
DRB1*0301
  IC50: 6.32 µM
DRB1*1302
  IC50: 0.899 µM
DRB4*0101
  IC50: 0.0079 µM
DRB1*1101
  IC50: 0.198 µM
DRB5*0101
  IC50: 0.014 µM

## GLYYWCDGEKIYFVK [Peptide 90.0226]
DR1 (DRB1*0101)
  IC50: 0.698 µM
DR7 (DRB1*0701)
  IC50: 4.93 µM
DRB1*0301
  IC50: 0.432 µM
DRB1*0802
  IC50: > 20 µM
DRB1*0901
  IC50: > 20 µM
DRB1*1501
  IC50: 1.3 µM
DRB4*0101
  IC50: > 20 µM
DRB1*1101
  IC50: 9.14 µM
DRB5*0101
  IC50: > 20 µM

## GQVIVCPASVSSNEV [Peptide 90.0016]
DR1 (DRB1*0101)
  IC50: 0.024 µM
DR4w4 (DRB1*0401)
  IC50: 0.064 µM
DR7 (DRB1*0701)
  IC50: 0.056 µM
DRB1*0301
  IC50: 7.74 µM
DRB1*0901
  IC50: 0.197 µM
DRB1*1302
  IC50: 0.094 µM
DRB1*1501
  IC50: 0.461 µM
DRB4*0101
  IC50: 0.197 µM
DRB1*1101
  IC50: 4.82 µM
DRB5*0101
  IC50: 8.64 µM

## HIEFTPTRTDTYACRV [Peptide 530.12]
DR7 (DRB1*0701)
  IC50: > 12.5 µM
DRB1*0301
  IC50: 30 µM

## HWKLIRMECAIMYTA [Peptide 90.0021]
DR1 (DRB1*0101)
  IC50: 0.028 µM
DR7 (DRB1*0701)
  IC50: 2.64 µM
DRB1*0301
  IC50: 0.082 µM
DRB1*0405
  IC50: 0.084 µM
DRB1*0802
  IC50: 14.1 µM
DRB1*1302
  IC50: 0.054 µM
DRB1*1501
  IC50: 3.84 µM
DRB4*0101
  IC50: 0.161 µM
DRB5*0101
  IC50: 3.07 µM
